How the values were obtained:
[1] = tested on: HOS (human osteogenic sarcoma); test: Calcein AM cytotoxicity assay, HOS; format: cell-based; details: 72 hours incubation
How it was run: (§1)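 Growth inhibition over 72 h of compound treatment, read by calcein fluorescence (Calcein AM 1 μg/ml final, 1 h). GI50 calculated from triplicate six-point, 3-fold dose-response curves starting at 166.7 μM.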

[2] = tested on: K-562 (human erythroleukemia); test: Calcein AM cytotoxicity assay, K-562; format: cell-based; details: 72 hours incubation
How it was run: as §1

MCF-7 (breast carcinoma) = test: Calcein AM cytotoxicity assay, MCF7; format: cell-based; details: 72 hours incubation
How it was run: as §1

[3] = tested on: G-361 (human malignant melanoma); test: Calcein AM cytotoxicity assay, G-361; format: cell-based; details: 72 hours incubation
How it was run: as §1

[4] = tested on: CEM (T-lymphoblastoid leukemia); test: Calcein AM cytotoxicity assay, CEM; format: cell-based
How it was run: as §1

[5] = tested on: HL-60 (promyelocytic leukemia); test: Calcein AM cytotoxicity assay, HL60; format: cell-based, human; details: 72 hours incubation
How it was run: as §1

Leukemia cell line CEM = test: Flow cytometry analysis of apoptosis (DNA fragmentation, sub-G1) in CEM; format: cell-based
Method: One of the hallmarks of apoptosis is fragmentation of DNA. It can be measured by flowcytometry of the cells stained with propidium iodide. Because the fragmentation results in a loss of a fraction of the nuclear DNA, apoptotic cells have a lower DNA content than cells in G1 phase of cell cycle and can be detected as a subG1 peak in the histogram.
Leukemia cell line CEM was cultured in cell culture medium (DMEM containing 5 g/l glucose, 2 mM glutamine, 100 U/ml penicillin, 100 μg/ml streptomycine, 10% fetal calf serum and sodium bicarbonate). 24 hours before treatment, cell suspensions were centrifuged, diluted with fresh medium to concentration of 100000 cells per ml with fresh medium and pipetted in 10 ml aliquotes Petri dishes. After an incubation for a given time period, the cells were collected by centrifugation (4° C., 600 g), washed with PBS (4° C.) and fixed with 70% ethanol at −20° C. overnight. Low molecular weight DNA fragmentse were extracted with citrate buffer (11.36 g trisodium citrate dihydrate/l). The nuclei were stained with the solution of propidium iodide in PBS (10 μg/ml) containing RNase A (60 IU per sample). After 1 hour incubation the samples were analyzed by flowcytometry (excitation 488 nm, emission above 620 nm).

**Q.** How did the GI50 [1] turn out when O=P(O)(O)OC[C@H]1O[C@@H](n2cnc3c(NCc4ccccc4O)ncnc32)[C@H](O)[C@@H]1O [Compound 21, 6-(2-hydroxybenzylamino)purine riboside-5′-monophosphate] was run?
**A.** 2500 nM

**Q.** What about the GI50 [2] of the same compound?
**A.** 4000 nM

**Q.** What about the GI50 (MCF-7 (breast carcinoma)) of the same compound?
**A.** 10500 nM

**Q.** What about the GI50 [3] of the same compound?
**A.** 13500 nM

**Q.** And the GI50 ([4]; 72 hours incubation, Calcein AM)?
**A.** 1300 nM

**Q.** What about the IC50 ([4]; FIG. 2 legend) of the same compound?
**A.** 1300 nM

**Q.** What about the GI50 [5] of the same compound?
**A.** 480 nM

**Q.** And the “time after which DNA fragmentation effect was visible” value (Leukemia cell line CEM)?
**A.** ≤ 12 h

**Q.** And the “induction of DNA fragmentation (apoptotic sub-G1 fraction)” value (Leukemia cell line CEM; IC50, triple IC50 and fivefold IC50)?
**A.** induction of DNA fragmentation is dependent on the concentration of compound 21 and the time of the treatment

Source: patent publication US9073961B2, “Substitution derivatives of N6 -benzyladenosine-5′-monophosphate, methods of preparation thereof, use thereof as medicaments, and therapeutic preparations containing these compounds” (UNIVERZITA PALACKEHO V OLOMOUCI, priority 2010, dated 2015)
